Measurements reported in US20180333382A1, “PHARMACEUTICAL COMPOSITIONS COMPRISING DGLA AND USE OF SAME” (DS Biopharma Limited, priority 2017, published 2018).

Tested on: patients with moderate to severe atopic dermatitis
Test: Phase II study of oral DS107G vs placebo: IGA, EASI, SCORAD, pruritus VAS, BSA, POEM, DLQI
Assay type: in vivo, human
Set-up: key to EASI, Actual, Median / EASI, Actual, Mean: EASI composite score, range 0-72
Conditions: for Percentage Change of BSA Levels From Baseline, Mean / Percentage Change of DLQI Scores From Baseline, Mean / Percentage Change of EASI Scores From Baseline, Mean / Percentage Change of IGA Scores From Baseline, Mean / Percentage Change of POEM Scores From Baseline, Mean / Percentage Change of SCORAD Levels From Baseline, Mean / Percentage Change of VAS Scores From Baseline, Mean: ITT Population
Experimental: A randomized, double-blind, placebo-controlled, phase II study was performed to assess the efficacy and safety of orally administered DS107G (DGLA) to patients with moderate to severe atopic dermatitis. The primary objective of the study was to compare the efficacy of orally administered DS107G capsules, versus placebo, in the treatment of adult patients with moderate to severe atopic dermatitis. The secondary objective was to assess the safety of orally administered DS107G capsules, versus placebo, in adult patients with moderate to severe atopic dermatitis. The primary study endpoint was the proportion of patients achieving an IGA (Investigator Global Assessment) of 0 (clear) or 1 (almost clear) and a decrease of at least 2 points in IGA at week 8. Secondary study endpoints included:
Approximately 100 patients with moderate to severe atopic dermatitis were included in this multicenter, double-blind, placebo controlled, phase IIa study. All subjects signed an informed consent and underwent screening for study eligibility. Subjects were randomized (1:1) at baseline visit to either receive oral DS107G 2 g or placebo, once daily for 8 weeks in a fasting state.
Subjects visited the clinic on 6 occasions: at screening, baseline, week 2, week 4, week 8 (end of treatment/early termination) and week 10 (follow-up). All subjects exited the study at the week 10 visit. The primary efficacy variable was the proportion of patients achieving an IGA of 0 (clear) or 1 (almost clear), and a decrease of at least 2 points in IGA at week 8. Secondary efficacy variables included: IGA at other visits, pruritus (obtained from the SCORAD visual analog scale), EASI, BSA, POEM, DLQI, SCORAD and TEWL (for selected sites only). Safety was assessed through adverse events, physical examination, vital signs and safety laboratory tests (including pregnancy tests for women of childbearing potential). Pharmacokinetic samples were obtained at Baseline (Day 0), week 4 and week 8 visits in order to measure total and free DGLA plasma trough levels. Separate plasma samples were retained for later analysis of total fatty acid profile and interleukin profile.
The EASI is a composite score ranging from 0-72 that takes into account the degree of erythema, induration/papulation, excoriation, and lichenification (each scored from 0 to 3 separately) for each of four body regions, with adjustment for the percent of BSA involved for each body region and for the proportion of the body region to the whole body. A detailed procedure of EASI score calculation is provided below.
SCORAD is calculated as follows: Six items (erythema, edema/papulation, oozing/crusts, excoriation, lichenification, and dryness) are selected to evaluate the AD severity. The intensity of each item is graded using a 4-point scale: • 0=No symptoms • 1=Mild • 2=Moderate • 3=Severe
Investigator's global assessment is determined as follows:
Body Surface Area (BSA). The overall BSA affected by AD will be evaluated (from 0 to 100%) at each visit. One patient's palm represents 1% of his/her total BSA. For all study visits, except at screening, the BSA of involved skin will be measured with the SCORAD measurement and evaluated as a separate endpoint.
The Patient-Oriented Eczema Measure (POEM) is determined using the following questionnaire:
The Dermatology Life Quality Index (DLQI) is determined using the following questionnaire:
Subjects who fulfilled all the inclusion and none of the exclusion criteria were accepted in the study. Each subject read and signed an informed consent form prior to any screening procedures being performed. This study involved a comparison of DS107G (DGLA) with placebo, administered orally once daily upon waking for a total duration of 8 weeks. Subjects were randomized to one of the two treatment groups in a 1:1 ratio:
The Investigator's Global Assessment (IGA) of Disease Severity was assessed at each visit. The IGA is a global assessment of the current state of the disease. […]

[1] = DS107 Phase 2a I.T.T. population, daily, 8 weeks
[2] = Table 9A: title Week 4, head Week 8/ET, n=34
[3] = Table 9A: title Week 4, head Week 8/ET, n=35
[4] = Week 8, ITT total population, N=51
[5] = Week 8, ITT, Moderate at baseline
[6] = Week 8, ITT, Very Severe/Severe at baseline
[7] = Week 8/ET, DS107G 2 g once daily, n=35
[8] = total study population, oral, once daily, 8 weeks

Question: What does the source list for `CCCCC/C=C\C/C=C\C/C=C\CCCCCCC(=O)O` [DS107G, Dihomo gamma linolenic acid]?
Answer: patients classified as Responders (IGA 0 or 1 at Week 8, 2-point decrease) (African America patients): 56%; patients classified as Responders (IGA 0 or 1 at Week 8, 2-point decrease) (Caucasian patients): 7%; BSA Change from Baseline [1]: −38%; EASI Percentage Change from Baseline [1]: −46%; EASI-50 (%) [1]: 57%; EASI-75 (%) [1]: 37%; IGA responder (%) [1]: 21%; Pruritus Percentage Change from Baseline [1]: −41%; Percentage Change of BSA Levels From Baseline, Mean (Week 2): −6.3%; Percentage Change of DLQI Scores From Baseline, Mean (Week 2): −29.5%; Percentage Change of EASI Scores From Baseline, Mean (Week 2): −15.0%; Percentage Change of IGA Scores From Baseline, Mean (Week 2): −11.7%; Percentage Change of POEM Scores From Baseline, Mean (Week 2): −30.2%; Percentage Change of SCORAD Levels From Baseline, Mean (Week 2): −12.0%; Percentage Change of VAS Scores From Baseline, Mean (Week 2): −20.9%; Percentage Change of BSA Levels From Baseline, Mean (Week 4): −21.9%; Percentage Change of DLQI Scores From Baseline, Mean (Week 4): −50.3%; Percentage Change of EASI Scores From Baseline, Mean (Week 4): −37.7%; Percentage Change of IGA Scores From Baseline, Mean (Week 4): −25.7%; Percentage Change of POEM Scores From Baseline, Mean (Week 4): −41.8%; Percentage Change of SCORAD Levels From Baseline, Mean (Week 4): −28.8%; Percentage Change of VAS Scores From Baseline, Mean (Week 4): −39.5%; Percentage Change of BSA Levels From Baseline, Mean (Week 8): −38.2%; Percentage Change of DLQI Scores From Baseline, Mean (Week 8): −43.2%; Percentage Change of EASI Scores From Baseline, Mean (Week 8): −45.6%; Percentage Change of IGA Scores From Baseline, Mean (Week 8): −38.4%; Percentage Change of POEM Scores From Baseline, Mean (Week 8): −37.2%; Percentage Change of SCORAD Levels From Baseline, Mean (Week 8): −36.1%; Percentage Change of VAS Scores From Baseline, Mean (Week 8): −41.0%; Percentage Change of BSA Levels From Baseline, Mean (Week 10): −37.7%; Percentage Change of DLQI Scores From Baseline, Mean (Week 10): −53.6%; Percentage Change of EASI Scores From Baseline, Mean (Week 10): −49.5%; Percentage Change of IGA Scores From Baseline, Mean (Week 10): −37.5%; Percentage Change of POEM Scores From Baseline, Mean (Week 10): −43.4%; Percentage Change of SCORAD Levels From Baseline, Mean (Week 10): −40.5%; Percentage Change of VAS Scores From Baseline, Mean (Week 10): −44.2%; primary end point (two point drop in IGA and end of treatment IGA of 0 or 1) vs placebo (ITT analysis, p=0.057): clinically significant trend; visual analog scale of pruritus, Change from baseline, LSMEANS [2]: −2.1; visual analog scale of pruritus, Change from baseline, Mean [2]: −2.8; visual analog scale of pruritus, Change from baseline, Median [2]: −2.0; visual analog scale of pruritus, Percent Change from Baseline, Mean [2]: −41.0%; visual analog scale of pruritus, Percent Change from Baseline, Median [2]: −35.3%; visual analog scale of pruritus, Actual, Mean [3]: 4.6; visual analog scale of pruritus, Actual, Median [3]: 4.0; visual analog scale of pruritus, Change from baseline, LSMEANS (Table 9B: Week 8/ET, n=34): −2.1; visual analog scale of pruritus, Change from baseline, Mean (Table 9B: Week 8/ET, n=34): −2.8; visual analog scale of pruritus, Change from baseline, Median (Table 9B: Week 8/ET, n=34): −2.0; visual analog scale of pruritus, Percent Change from Baseline, Mean (Table 9B: Week 8/ET, n=34): −41.0%; visual analog scale of pruritus, Percent Change from Baseline, Median (Table 9B: Week 8/ET, n=34): −35.3%; visual analog scale of pruritus, Actual, Mean (Table 9B: Week 8/ET, n=35): 4.6; visual analog scale of pruritus, Actual, Median (Table 9B: Week 8/ET, n=35): 4.0; IGA score 0—Clear [4]: 4 ( 7.8) n (%); IGA score 1—Almost Clear [4]: 7 ( 13.7) n (%); IGA score 2—Mild [4]: 9 ( 17.6) n (%); IGA score 3—Moderate [4]: 10 ( 19.6) n (%); IGA score 4—Severe [4]: 4 ( 7.8) n (%); IGA score 5—Very Severe [4]: 1 ( 2.0) n (%); Non-Responders [4]: 37 ( 72.5) n (%); Responders (decrease of at least 2 points in IGA score at Week 8) [4]: 14 ( 27.5) n (%); IGA score 0—Clear [5]: 4 (13.8) n (%); IGA score 1—Almost Clear [5]: 4 (13.8) n (%); IGA score 2—Mild [5]: 6 (20.7) n (%); IGA score 3—Moderate [5]: 4 (13.8) n (%); IGA score 4—Severe [5]: 1 (3.4) n (%); IGA score 5—Very Severe [5]: 0 (0.0) n (%); Non-Responders [5]: 21 (72.4) n (%); Responders [5]: 8 (27.6) n (%); IGA score 0—Clear [6]: 0 (0.0) n (%); IGA score 1—Almost Clear [6]: 3 (13.6) n (%); IGA score 2—Mild [6]: 3 (13.6) n (%); IGA score 3—Moderate [6]: 6 (27.3) n (%); IGA score 4—Severe [6]: 3 (13.6) n (%); IGA score 5—Very Severe [6]: 1 (4.5) n (%); Non-Responders [6]: 16 (72.7) n (%); Responders [6]: 6 (27.3) n (%); EASI, Actual, Mean [7]: 9.3; EASI, Actual, Median [7]: 7.4; EASI, Change from baseline, LSMEANS (ANCOVA) [7]: −8.0; EASI, Change from baseline, Mean [7]: −9.4; EASI, Change from baseline, Median [7]: −8.0; EASI, Percent Change from Baseline, Mean [7]: −45.6%; EASI, Percent Change from Baseline, Median [7]: −62.7%; SCORAD, Change from baseline, LSMEANS (Week 8/ET, n=34): −18.7; SCORAD, Change from baseline, Mean (Week 8/ET, n=34): −21.1; SCORAD, Change from baseline, Median (Week 8/ET, n=34): −21.2; SCORAD, Percent Change from Baseline, Mean (Week 8/ET, n=34): −36.1%; SCORAD, Percent Change from Baseline, Median (Week 8/ET, n=34): −43.4%; SCORAD, Actual, Mean (Week 8/ET, n=35): 35.9; SCORAD, Actual, Median (Week 8/ET, n=35): 28.6; body surface area affected by atopic dermatitis, Actual, Mean (Week 8/ET, n=35): 17.6; body surface area affected by atopic dermatitis, Actual, Median (Week 8/ET, n=35): 12.0; body surface area affected by atopic dermatitis, Change from baseline, LSMEANS (Week 8/ET, n=35): −8.9; body surface area affected by atopic dermatitis, Change from baseline, Mean (Week 8/ET, n=35): −9.6; body surface area affected by atopic dermatitis, Change from baseline, Median (Week 8/ET, n=35): −8.0; body surface area affected by atopic dermatitis, Percent Change from Baseline, Mean (Week 8/ET, n=35): −38.2%; body surface area affected by atopic dermatitis, Percent Change from Baseline, Median (Week 8/ET, n=35): −50.0%; response rate in subjects having low baseline eosinophil counts (in vivo): higher response rate; primary end point (two point drop in IGA and end of treatment IGA of 0 or 1) vs placebo (moderate patient subgroup (n=67), p=0.036): statistically significant improvement; EASI (% decrease) [8]: 46%; IGA responders (%) [8]: 22%; Pruritus delta (as measured by VAS) [8]: 41%; Pruritus score decrease (as measured by VAS) [8]: c. (2.8); SCORAD (% decrease) [8]: 36%; pruritus score [visual analog scale] vs placebo (within four weeks of dosing, p=0.015): statistically significant reduction of itch
